In ChEMBL document CHEMBL1201862, “PubChem BioAssay data set” (2004):
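All cell lines were grown in 96-well plates and treated with compound for 48 hours. Abbreviation: GI50, concentration required for 50% inhibition of growth.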 Active and inactive are the calls of the source. No stated cut-off is given here; in the data, active = GI50 up to about 1.1 µM and inactive = higher.

Columns and labels:
Experiment in all cases: inhibition of tumour cell growth, NCI panel, 48 h
[1] = tested on: A549
[2] = tested on: CCRF-CEM
[3] = tested on: DMS-273
[4] = tested on: DU-145
[5] = tested on: HCT-15
[6] = tested on: HOP-62
[7] = tested on: MDA-N
[8] = tested on: NCI-H226
[9] = tested on: NCI-H23
[10] = tested on: NCI-H522
[11] = tested on: OVCAR-5
[12] = tested on: RPMI-8226
[13] = tested on: RXF 393
[14] = tested on: SF-268
[15] = tested on: SF-295
[16] = tested on: SNB-19
[17] = tested on: SNB-78
[18] = tested on: TK-10
[19] = tested on: UACC-257
[20] = tested on: XF498

| SMILES | GI50 [1] | GI50 [2] | GI50 [3] | GI50 [4] | GI50 [5] [µM] | GI50 [6] | GI50 [7] | GI50 [8] | GI50 [9] | GI50 [10] | GI50 [11] | GI50 [12] | GI50 [13] | GI50 [14] | GI50 [15] | GI50 [16] | GI50 [17] | GI50 [18] | GI50 [19] | GI50 [20] |
| --- | --- | --- | --- | --- | --- | --- | --- | --- | --- | --- | --- | --- | --- | --- | --- | --- | --- | --- | --- | --- |
| C/C(=N\N=C(/S)N1CC2CCC(CC2)C1)c1cccc[n+]1[O-] | 4.98 µM (inactive) | 0.238 µM (active) | 2.62 µM (inactive) | 46.8 µM (inactive) | 1.8 | 12.6 µM (inactive) | 14.2 µM (inactive) | 3.41 µM (inactive) | 16.6 µM (inactive) | 11.4 µM (inactive) | 6.11 µM (inactive) | 0.381 µM (active) | 13.7 µM (inactive) | 11.8 µM (inactive) | 4.43 µM (inactive) | 9.08 µM (inactive) | 8.34 µM (inactive) | 20.4 µM (inactive) | 7.59 µM (inactive) | 21.4 µM (inactive) |
| C=Cc1cncc(C#N)c1CCc1c(C#N)cncc1C=C | > 10 µM (inactive) | > 10 µM (inactive) | > 10 µM (inactive) | – | > 10 | > 10 µM (inactive) | – | > 10 µM (inactive) | > 10 µM (inactive) | > 10 µM (inactive) | > 10 µM (inactive) | > 10 µM (inactive) | 56.5 µM (inactive) | > 10 µM (inactive) | > 10 µM (inactive) | > 10 µM (inactive) | > 10 µM (inactive) | > 10 µM (inactive) | > 10 µM (inactive) | > 10 µM (inactive) |
| CC(=O)OCC(OC(C)=O)C(OC(C)=O)C(OC(C)=O)C(=O)CNn1c(-c2ccccc2Cl)nc2ccc(Br)cc2c1=O (stereo not drawn) | > 100 µM (inactive) | 42.5 µM (inactive) | 56.5 µM (inactive) | – | 78.7 | > 100 µM (inactive) | – | – | > 100 µM (inactive) | 33.2 µM (inactive) | > 100 µM (inactive) | 27 µM (inactive) | 67 µM (inactive) | > 100 µM (inactive) | > 100 µM (inactive) | 81.1 µM (inactive) | 65.6 µM (inactive) | – | > 100 µM (inactive) | 15.5 µM (inactive) |
| CC(=O)NC(CCCCNCc1ccccc1)C(=O)NCc1ccccc1 (stereo not drawn) | > 100 µM (inactive) | > 100 µM (inactive) | > 100 µM (inactive) | – | > 100 | > 100 µM (inactive) | – | > 100 µM (inactive) | > 100 µM (inactive) | > 100 µM (inactive) | > 100 µM (inactive) | > 100 µM (inactive) | > 100 µM (inactive) | > 100 µM (inactive) | > 100 µM (inactive) | > 100 µM (inactive) | > 100 µM (inactive) | > 100 µM (inactive) | > 100 µM (inactive) | > 100 µM (inactive) |
| COC(=O)C(=O)CC(=O)CCn1ncc(Cl)c(Cl)c1=O | 19.9 µM (inactive) | 3.59 µM (inactive) | 14.9 µM (inactive) | – | 4.14 | 22.7 µM (inactive) | – | 24.2 µM (inactive) | 13.2 µM (inactive) | 0.57 µM (active) | 19.2 µM (inactive) | 12.8 µM (inactive) | 20.2 µM (inactive) | 11.3 µM (inactive) | 13.7 µM (inactive) | 18.5 µM (inactive) | 20.5 µM (inactive) | 47.4 µM (inactive) | 15.8 µM (inactive) | 29 µM (inactive) |
| N#CC(C#N)=Cc1cccc(Oc2ccccc2)c1 | 70.3 µM (inactive) | 20.6 µM (inactive) | 19 µM (inactive) | – | 35.1 | 23.4 µM (inactive) | – | 33 µM (inactive) | 14.9 µM (inactive) | 21.2 µM (inactive) | > 67.1 µM (inactive) | 20.9 µM (inactive) | 17.7 µM (inactive) | 19.1 µM (inactive) | 20.2 µM (inactive) | 22 µM (inactive) | 29.2 µM (inactive) | 31.7 µM (inactive) | 16.8 µM (inactive) | 20.2 µM (inactive) |
| CC1C(=O)CCC1C(Sc1ccccc1)(Sc1ccccc1)Sc1ccccc1 (stereo not drawn) | 9.27 µM (inactive) | 3.48 µM (inactive) | 23.3 µM (inactive) | – | 30.3 | 37.4 µM (inactive) | – | – | 22.5 µM (inactive) | 11.1 µM (inactive) | > 100 µM (inactive) | 12.6 µM (inactive) | 14.2 µM (inactive) | 10.7 µM (inactive) | 36.8 µM (inactive) | 26.5 µM (inactive) | 37.8 µM (inactive) | 47.9 µM (inactive) | 31.5 µM (inactive) | 24.7 µM (inactive) |
| CN(C)c1[se]nc2c1c(=O)n(C)c(=O)n2C | > 100 µM (inactive) | > 100 µM (inactive) | > 100 µM (inactive) | – | > 100 | > 100 µM (inactive) | – | > 100 µM (inactive) | > 100 µM (inactive) | > 100 µM (inactive) | > 100 µM (inactive) | > 100 µM (inactive) | – | > 100 µM (inactive) | > 100 µM (inactive) | > 100 µM (inactive) | > 100 µM (inactive) | > 100 µM (inactive) | > 100 µM (inactive) | > 100 µM (inactive) |
| Oc1cccnc1/C=N/OCc1ccccc1 | > 100 µM (inactive) | > 100 µM (inactive) | > 100 µM (inactive) | – | > 100 | > 100 µM (inactive) | – | > 100 µM (inactive) | – | > 100 µM (inactive) | > 100 µM (inactive) | > 100 µM (inactive) | 23.6 µM (inactive) | > 100 µM (inactive) | > 100 µM (inactive) | > 100 µM (inactive) | > 100 µM (inactive) | > 100 µM (inactive) | > 100 µM (inactive) | 29 µM (inactive) |
| O=C(CCc1nnc2s/c(=C\c3ccccc3[N+](=O)[O-])c(=O)n12)Nc1cc(Cl)c(Cl)cc1Cl | 30.5 µM (inactive) | 24.4 µM (inactive) | 54.3 µM (inactive) | – | 40.4 | 23.1 µM (inactive) | – | 16.4 µM (inactive) | 33.2 µM (inactive) | 38.3 µM (inactive) | 34.1 µM (inactive) | – | 22 µM (inactive) | 26.5 µM (inactive) | 18.7 µM (inactive) | 30.1 µM (inactive) | 35.2 µM (inactive) | 37.1 µM (inactive) | 63.4 µM (inactive) | 22.6 µM (inactive) |
| O=C1NC2(CCCCC2)C2=C1CCCCC2 | > 100 µM (inactive) | > 100 µM (inactive) | > 100 µM (inactive) | – | > 100 | > 100 µM (inactive) | – | – | > 100 µM (inactive) | > 100 µM (inactive) | > 100 µM (inactive) | – | > 100 µM (inactive) | > 100 µM (inactive) | > 100 µM (inactive) | > 100 µM (inactive) | > 100 µM (inactive) | > 100 µM (inactive) | > 100 µM (inactive) | > 100 µM (inactive) |
| C/C(=N\NC(=S)N1CCN(c2ccccn2)CC1)c1ccccn1 | 0.111 µM (active) | 0.00337 µM (active) | 0.00069 µM (active) | 1.08 µM (active) | 0.0219 | 0.035 µM (active) | 0.167 µM (active) | 0.649 µM (active) | 0.022 µM (active) | 0.0818 µM (active) | 0.0474 µM (active) | 0.00681 µM (active) | 0.4 µM (active) | 0.193 µM (active) | 0.00532 µM (active) | 0.27 µM (active) | 5.38 µM (inactive) | 0.871 µM (active) | 0.00135 µM (active) | 0.000206 µM (active) |
| Cc1ccc(S(=O)(=O)NC2CCCCO2)cc1 (stereo not drawn) | > 100 µM (inactive) | > 100 µM (inactive) | > 100 µM (inactive) | – | > 100 | > 100 µM (inactive) | – | > 100 µM (inactive) | > 100 µM (inactive) | > 100 µM (inactive) | > 100 µM (inactive) | > 100 µM (inactive) | > 100 µM (inactive) | > 100 µM (inactive) | – | > 100 µM (inactive) | > 100 µM (inactive) | – | > 100 µM (inactive) | > 100 µM (inactive) |
| CCC1(CN(C)C)CC/C(=C\c2ccc(OC)c(OC)c2)C1=O (stereo not drawn) | > 100 µM (inactive) | > 68.9 µM (inactive) | > 100 µM (inactive) | – | > 100 | > 100 µM (inactive) | – | > 100 µM (inactive) | > 100 µM (inactive) | 64.1 µM (inactive) | > 69.5 µM (inactive) | 18.2 µM (inactive) | > 100 µM (inactive) | > 100 µM (inactive) | > 100 µM (inactive) | > 100 µM (inactive) | > 100 µM (inactive) | > 100 µM (inactive) | > 100 µM (inactive) | > 100 µM (inactive) |
| Cc1ccc(C)c(NC(=O)c2cccc([N+](=O)[O-])c2O)c1 | 25.5 µM (inactive) | > 100 µM (inactive) | 24.1 µM (inactive) | – | 28.8 | 15.8 µM (inactive) | – | 16.6 µM (inactive) | 16.3 µM (inactive) | 23.3 µM (inactive) | 87.7 µM (inactive) | 5.71 µM (inactive) | 0.871 µM (active) | 22 µM (inactive) | 18.4 µM (inactive) | 34.4 µM (inactive) | 14.1 µM (inactive) | – | 16.1 µM (inactive) | 23.2 µM (inactive) |
